Experiment: Absorption spectrum in methylene chloride at 50 ppm
Type: physicochemical
Conditions: for Absorption of light (absorption spectrum): methylene chloride, 50 ppm, FIGS. 1 to 4
Experimental: One way of measuring the λmax of an active energy ray polymerization initiator is to dissolve an active energy ray polymerization initiator in methylene chloride at 50 ppm followed by measuring the absorption spectrum of this solution by a spectrophotometer for ultraviolet, visible light, and near infrared, V-680, manufactured by JASCO Corporation.
The absorption spectrum was measured by a spectrophotometer V-680 for UV, visible light, and near IR, manufactured by JASCO Corporation.
The absorption spectra of the active energy ray polymerization initiators Ref-1, Ref-2, and Ref-4 were measured as described above.

Structure (SMILES)	Support of LED light source of 365 nm, 385 nm, and 395 nm (judged from absorption spectrum)	Absorption of light (absorption spectrum)
CCCCCCCCCCCCOc1ccc2sc3ccccc3c(=O)c2c1 [Ref-1, 2-dodecyloxy thioxanthone]	support an LED light source of 365 nm, 385 nm, and 395 nm	fully absorb light having a wavelength of 400 nm or less
CC(C)(O)C(=O)c1ccccc1 [Ref-4, 2-Hydroxy-2-methyl-1-phenylpropane-1-one]	–	does not absorb light having a wavelength of 350 nm or greater at all
